Values of other authors, collected in patent US20050129719A1, “Concentrated emulsion formulation for silatecan” (priority 2003, published 2005).

- water-solubility: extremely low water-solubility
SMILES: CC[C@@]1(O)C(=O)OCc2c1cc1n(c2=O)Cc2c-1nc1ccc(O)cc1c2[Si](C)(C)C(C)(C)C [Silatecan, 7-t-butyldimethylsilyl-10-hydroxycamptothecin]
